Assay results published in patent US7968526B2, “Antisense oligonucleotides directed to ribonucleotide reductase R2 and uses thereof in the treatment of cancer” (Lorus Therapeutics Inc., priority 2003, dated 2011).
“Also recorded” adds a separate entry of the source.

What was measured:
[1] = test system: MDA-MB435-To.1 human Taxol-resistant breast adenocarcinoma cells; assay: MDA-MB435-To.1 Taxol-resistant breast adenocarcinoma, fat pad, CB-17 SCID mice, combination with Cisplatin (2.6); assay type: in vivo, human cells in mice; conditions: SEQ ID NO:1 10 mg/kg i.v. every other day
Method: BxPC-3 is a gemcitabine resistant call line. […] Gemcitabine was administered intravenously every three days at a dose of 100 mg/kg. Antitumour activities were estimated by the inhibition of tumour volume, which was measured with caliper. Each point represents mean tumour volume calculated from 10 animals per experimental group. […] Hela S3 is a hydroxyurea resistant cell line. […] Hydroxyurea was administered intraperitoneally every day at a dose of 250 mg/kg for 10 days. Cisplatin was administered intravenously once a week for three weeks at a dose of 4 mg/kg. Antitumour activities were estimated by the inhibition of tumour volume, which was measured with caliper. Each point represents mean tumour volume calculated from 10 animals per experimental group. […] Cisplatin was administered intravenously once a week for three weeks at a dose of 4 mg/kg. Taxol was administered intravenously once a week for three weeks at a dose of 10 mg/kg. Antitumour activities were estimated by the inhibition of tumour volume, which was measured with caliper. Each point represents mean tumour volume calculated from 10 animals per experimental group. […] Taxol was administered i.p. once a week at a dose of 10 mg/kg. Antitumour activities were estimated by the inhibition of tumour volume (FIG. 12A), which was measured with calipers. Each point represents mean tumour volume calculated from 10 animals per experimental group. […] Antitumour activities were estimated by the inhibition of tumour volume, which was measured with caliper. Each point represents mean tumour volume calculated from 9-10 animals per experimental group. […] Antitumour activities were estimated by the inhibition of tumour volume, which was measured with caliper. Each point represents mean tumour volume calculated from 10 animals per experimental group. […] Anti-tumour activity was estimated by the inhibition of tumour volume, which was measured with caliper. Each point represents mean tumour volume calculated from 10 animals per experimental group. […] Antitumour activities were estimated by the inhibition of tumour volume, which was measured with caliper. […]

[2] = test system: human tumour cell xenografts; assay: Human tumour cell xenografts in mice, compiled tumour weights (FIG. 29); assay type: in vivo, human cells in mice
Method: CD-1 athymic female nude mice, BALB/c nu/nu nude mice, SCID, and SCID beige mice were purchased from Charles River Laboratories (Montreal, Canada) and experiments were typically initiated when the mice were 6-7 weeks old. Human tumour cells were grown in appropriate growth medium and 3×10^6−1×10^7 cells suspended in 100 μl of PBS were subcutaneously injected into the right flank of the animals with a 23 gauge needle (cell number indicated in the figure legends). Each experimental group typically contained 10 mice. After the size of tumour reached a mean tumour volume of 50-100 mm^3, treatment was initiated. Antisense oligonucleotides (dissolved in saline) were administered by bolus infusion into the tail vein of animal every other day at the indicated dose. Anti-tumour activity was estimated by the measurement of tumour volume with a calliper at two-three day intervals. Tumour volume was calculated by a formula L×W×H/2, where L indicates length, W indicates width and H indicates height. Within 24 hours after the last treatment, the animals were sacrificed and tumour and body weights were measured.
Each data point represents tumour weight and standard error. […]

[3] = Phase I study of SEQ ID NO:1 by continuous intravenous infusion in patients with advanced cancer: toxicity and response
Method: Pharmacokinetic parameters were assessed. SEQ ID NO:1 was administered using a portable infusion pump in cycles of 21 days CVI followed by one week of rest. […] Doses were doubled in cohorts of 1-3 patients until the appearance of Gr 1 toxicity, with subsequent escalation of 20-30% in cohorts of 3 patients. DLT was defined as Gr 4 neutropenia lasting 3 days or with fever; Gr 4 thrombocytopenia (T) or Gr 3 T with Gr 1 bleeding; or Gr 3 non-hematologic toxicity.

[4] = Cycle 1, 18.5 mg/m^2/day 21 day CVI, 2 patients
[5] = Cycle 1, 74 mg/m^2/day 21 day CVI, 1 patient
[6] = Cycle 1, 148 mg/m^2/day 21 day CVI, 6 patients
[7] = Cycle 1, 185 mg/m^2/day 21 day CVI, 9 patients
[8] = Cycle 1, 222 mg/m^2/day 21 day CVI, 7 patients

5′-GGCTAAATCGCTCCACCAAG-3′ (all phosphorothioate, sugars by position and methylation of C not given here) [SEQ ID NO: 1]
Tumour weight as % of saline control ([1]; MDA-MB435-To.1 (breast), Taxol resistant, CB-17/SCID, Cisplatin 4 mg/kg i.v. weekly x4): 37%
Antitumour effect (FIG. 14) ([1]; MDA-MB435-To.1 Taxol-resistant, CB-17 SCID mice, Cisplatin 4 mg/kg i.v. weekly): significant reduction of tumour weight compared to saline control; also recorded: superior to the inhibitory effects observed with Cisplatin
Effect on tumour growth and endpoint weight ([2]; all cancer cell lines tested): significant decrease in tumour growth (volume over time) and endpoint weight
p, difference in tumour weight between control and oligonucleotide treated groups ([2]; range of human tumour xenografts, 2.5 mg/kg to 10 mg/kg i.v. every second day, all cases): < 0.05
DLT: Gr 3 fatigue ([3]; 148 mg/m^2/day): 1/6
Tolerability at the recommended phase II dose ([3]; 185 mg/m^2/day): well tolerated by 11 patients
DLT: Gr 4 transaminase elevation ([3]; 222 mg/m^2/day): 2/6
recommended phase II dose ([3]; 21 days CVI followed by one week of rest): 185 mg/m^2/day
maximum tolerated dose (MTD) ([3]; 21 days CVI followed by one week of rest, patients with advanced malignancies): 222 mg/m^2/day
No. of Patients with Grade of Toxicity: Anorexia Grade 1 [3, 4]: 1
No. of Patients with Grade of Toxicity: Fatigue Grade 1 [3, 4]: 1
No. of Patients with Grade of Toxicity: Anorexia Grade 1 [3, 5]: 1
No. of Patients with Grade of Toxicity: Fatigue Grade 1 [3, 5]: 1
No. of Patients with Grade of Toxicity: Nausea Grade 1 [3, 5]: 1
No. of Patients with DLT (Table 10) [3, 6]: 1
No. of Patients with Grade of Toxicity: Anorexia Grade 1 [3, 6]: 1
No. of Patients with Grade of Toxicity: Anorexia Grade 2 [3, 6]: 1
No. of Patients with Grade of Toxicity: Fatigue Grade 1 [3, 6]: 1
No. of Patients with Grade of Toxicity: Fatigue Grade 2 [3, 6]: 1
No. of Patients with Grade of Toxicity: Fatigue Grade 3 (*DLT) [3, 6]: 1*
No. of Patients with Grade of Toxicity: Nausea Grade 2 [3, 6]: 1
No. of Patients with Grade of Toxicity: Neutropenia Grade 3 [3, 6]: 1
No. of Patients with Grade of Toxicity: Anorexia Grade 1 [3, 7]: 2
No. of Patients with Grade of Toxicity: Fatigue Grade 1 [3, 7]: 3
No. of Patients with Grade of Toxicity: Fatigue Grade 2 [3, 7]: 2
No. of Patients with Grade of Toxicity: Nausea Grade 1 [3, 7]: 3
No. of Patients with DLT (Table 11) [3, 8]: 2
No. of Patients with Grade of Toxicity: Anemia Grade 2 [3, 8]: 2
No. of Patients with Grade of Toxicity: Anorexia Grade 2 [3, 8]: 1
No. of Patients with Grade of Toxicity: Bilirubin Grade 2 [3, 8]: 1
No. of Patients with Grade of Toxicity: Bilirubin Grade 4 (*DLT) [3, 8]: 1*
No. of Patients with Grade of Toxicity: Fatigue Grade 1 [3, 8]: 3
No. of Patients with Grade of Toxicity: Fatigue Grade 2 [3, 8]: 1
No. of Patients with Grade of Toxicity: Nausea Grade 1 [3, 8]: 3
No. of Patients with Grade of Toxicity: Neutropenia Grade 2 [3, 8]: 1
No. of Patients with Grade of Toxicity: Rash Grade 2 [3, 8]: 1
No. of Patients with Grade of Toxicity: Transaminases Grade 2 [3, 8]: 1
No. of Patients with Grade of Toxicity: Transaminases Grade 4 (*DLT) [3, 8]: 2*
Hematologic toxicity ([3]; doses 18.5 to 222 mg/m^2/day): mild
Number of DLTs observed ([3]; doses 18.5 to 222 mg/m^2/day): Three DLTs were observed in 25 patients assessable for toxicity
Other serious toxicities: Gr 3 non-neutropenic infection ([3]; doses 18.5 to 222 mg/m^2/day): 2 patients
Other serious toxicities: bowel obstruction ([3]; doses 18.5 to 222 mg/m^2/day): 1 patient
common (Gr 1-2) non-hematologic toxicities: anorexia ([3]; doses 18.5 to 222 mg/m^2/day): 42%
common (Gr 1-2) non-hematologic toxicities: fatigue ([3]; doses 18.5 to 222 mg/m^2/day): 69%
common (Gr 1-2) non-hematologic toxicities: nausea ([3]; doses 18.5 to 222 mg/m^2/day): 38%
Tumour response: stable disease ([3]; patients with advanced cancer, after 2 cycles): Four patients had stable disease (SD) after 2 cycles
